Laboratory results: patent publication US20170045513A1, “METHODS OF DIAGNOSING CELIAC DISEASE USING IP-10” (ImmusanT, Inc., priority 2014, published 2017)
Non-standard residues stand in square brackets, D forms with d. pGlu = O=C1CC[C@@H](C(=O)O)N1

System: gluten-reactive T cells
Assay: 96-well plate whole blood cytokine release, IP-10 by MAGPIX multiplex bead assay
Format: cell-based, human
Settings: for Percent of maximal response to individual gluten peptides, IP-10: after oral gluten challenge; for IP-10 WB MAGPIX % max Mean: n = 10, blood after oral gluten challenge, individual peptides 5 μM (Peptide 2* of P14, Pepscan: 10 μg/mL (5.45 μM))

Substance	Percent of maximal response to individual gluten peptides, IP-10 (Subject 1, Max. 2331 pg/mL)	Percent of maximal response to individual gluten peptides, IP-10 (Subject 2, Max. 3646 pg/mL)	Percent of maximal response to individual gluten peptides, IP-10 (Subject 3, Max. 9492 pg/mL)	Percent of maximal response to individual gluten peptides, IP-10 (Subject 4, Max. 9463 pg/mL)	Percent of maximal response to individual gluten peptides, IP-10 (Subject 5, Max. 9336 pg/mL)	Percent of maximal response to individual gluten peptides, IP-10 (Subject 6, Max. 5863 pg/mL)	Percent of maximal response to individual gluten peptides, IP-10 (Subject 7, Max. 2330 pg/mL)	Percent of maximal response to individual gluten peptides, IP-10 (Subject 8, Max. 4019 pg/mL)	Percent of maximal response to individual gluten peptides, IP-10 (Subject 9, Max. 8349 pg/mL)	Percent of maximal response to individual gluten peptides, IP-10 (Subject 10, Max. 8922 pg/mL)	IP-10 WB MAGPIX % max Mean
(pE)QPFPQPEQPTPIQPEQP-amide ([pGlu]QPFPQPEQPTPIQPEQP-NH2; SMILES CC[C@H](C)[C@H](NC(=O)[C@@H]1CCCN1C(=O)[C@@H](NC(=O)[C@@H]1CCCN1C(=O)[C@H](CCC(N)=O)NC(=O)[C@H](CCC(=O)O)NC(=O)[C@@H]1CCCN1C(=O)[C@H](CCC(N)=O)NC(=O)[C@@H]1CCCN1C(=O)[C@H](Cc1ccccc1)NC(=O)[C@@H]1CCCN1C(=O)[C@H](CCC(N)=O)NC(=O)[C@@H]1CCC(=O)N1)[C@@H](C)O)C(=O)N[C@@H](CCC(N)=O)C(=O)N1CCC[C@H]1C(=O)N[C@@H](CCC(=O)O)C(=O)N[C@@H](CCC(N)=O)C(=O)N1CCC[C@H]1C(N)=O) [Peptide 5]	0 % of max	13 % of max	≥ 100 % of max	46 % of max	13 % of max	1 % of max	2 % of max	4 % of max	10 % of max	60 % of max	25 % max
(pE)QPFPQPEQPFSQQ-amide ([pGlu]QPFPQPEQPFSQQ-NH2; SMILES NC(=O)CC[C@H](NC(=O)[C@H](CCC(N)=O)NC(=O)[C@H](CO)NC(=O)[C@H](Cc1ccccc1)NC(=O)[C@@H]1CCCN1C(=O)[C@H](CCC(N)=O)NC(=O)[C@H](CCC(=O)O)NC(=O)[C@@H]1CCCN1C(=O)[C@H](CCC(N)=O)NC(=O)[C@@H]1CCCN1C(=O)[C@H](Cc1ccccc1)NC(=O)[C@@H]1CCCN1C(=O)[C@H](CCC(N)=O)NC(=O)[C@@H]1CCC(=O)N1)C(N)=O) [Peptide 7]	0 % of max	7 % of max	60 % of max	20 % of max	12 % of max	0 % of max	0 % of max	3 % of max	17 % of max	3 % of max	12 (12) % max
(pE)QPYPQPELPYPQPQ-amide ([pGlu]QPYPQPELPYPQPQ-NH2; SMILES CC(C)C[C@H](NC(=O)[C@H](CCC(=O)O)NC(=O)[C@@H]1CCCN1C(=O)[C@H](CCC(N)=O)NC(=O)[C@@H]1CCCN1C(=O)[C@H](Cc1ccc(O)cc1)NC(=O)[C@@H]1CCCN1C(=O)[C@H](CCC(N)=O)NC(=O)[C@@H]1CCC(=O)N1)C(=O)N1CCC[C@H]1C(=O)N[C@@H](Cc1ccc(O)cc1)C(=O)N1CCC[C@H]1C(=O)N[C@@H](CCC(N)=O)C(=O)N1CCC[C@H]1C(=O)N[C@@H](CCC(N)=O)C(N)=O) [Peptide 15]	4 % of max	30 % of max	≥ 100 % of max	67 % of max	33 % of max	0 % of max	6 % of max	5 % of max	69 % of max	17 % of max	33 % max
(pE)QPFPQPEQPIPVQPEQS-amide ([pGlu]QPFPQPEQPIPVQPEQS-NH2; SMILES CC[C@H](C)[C@H](NC(=O)[C@@H]1CCCN1C(=O)[C@H](CCC(N)=O)NC(=O)[C@H](CCC(=O)O)NC(=O)[C@@H]1CCCN1C(=O)[C@H](CCC(N)=O)NC(=O)[C@@H]1CCCN1C(=O)[C@H](Cc1ccccc1)NC(=O)[C@@H]1CCCN1C(=O)[C@H](CCC(N)=O)NC(=O)[C@@H]1CCC(=O)N1)C(=O)N1CCC[C@H]1C(=O)N[C@H](C(=O)N[C@@H](CCC(N)=O)C(=O)N1CCC[C@H]1C(=O)N[C@@H](CCC(=O)O)C(=O)N[C@@H](CCC(N)=O)C(=O)N[C@@H](CO)C(N)=O)C(C)C) [Peptide 4]	18 % of max	19 % of max	≥ 100 % of max	≥ 100 % of max	51 % of max	2 % of max	3 % of max	7 % of max	48 % of max	30 % of max	38 % max
(pE)PEQPFPEQPIPEQPQPYP-amide ([pGlu]PEQPFPEQPIPEQPQPYP-NH2; SMILES CC[C@H](C)[C@H](NC(=O)[C@@H]1CCCN1C(=O)[C@H](CCC(N)=O)NC(=O)[C@H](CCC(=O)O)NC(=O)[C@@H]1CCCN1C(=O)[C@H](Cc1ccccc1)NC(=O)[C@@H]1CCCN1C(=O)[C@H](CCC(N)=O)NC(=O)[C@H](CCC(=O)O)NC(=O)[C@@H]1CCCN1C(=O)[C@@H]1CCC(=O)N1)C(=O)N1CCC[C@H]1C(=O)N[C@@H](CCC(=O)O)C(=O)N[C@@H](CCC(N)=O)C(=O)N1CCC[C@H]1C(=O)N[C@@H](CCC(N)=O)C(=O)N1CCC[C@H]1C(=O)N[C@@H](Cc1ccc(O)cc1)C(=O)N1CCC[C@H]1C(N)=O) [Peptide 14]	2 % of max	31 % of max	≥ 100 % of max	≥ 100 % of max	100 % of max	100 % of max	100 % of max	91 % of max	≥ 100 % of max	≥ 100 % of max	82 % max
(pE)QPFPQPELPYPYPQ-amide ([pGlu]QPFPQPELPYPYPQ-NH2; SMILES CC(C)C[C@H](NC(=O)[C@H](CCC(=O)O)NC(=O)[C@@H]1CCCN1C(=O)[C@H](CCC(N)=O)NC(=O)[C@@H]1CCCN1C(=O)[C@H](Cc1ccccc1)NC(=O)[C@@H]1CCCN1C(=O)[C@H](CCC(N)=O)NC(=O)[C@@H]1CCC(=O)N1)C(=O)N1CCC[C@H]1C(=O)N[C@@H](Cc1ccc(O)cc1)C(=O)N1CCC[C@H]1C(=O)N[C@@H](Cc1ccc(O)cc1)C(=O)N1CCC[C@H]1C(=O)N[C@@H](CCC(N)=O)C(N)=O) [Peptide 16]	16 % of max	45 % of max	≥ 100 % of max	69 % of max	35 % of max	4 % of max	800 % of max	1 % of max	60 % of max	11 % of max	42 % max
